{"source": "patent US20240277631A1", "about": "“SMALL MOLECULE DRUG (ELP-004) TO PREVENT BONE LESIONS CAUSED BY MULTIPLE MYELOMA” (West Virginia University Board of Governors on behalf of …, priority 2023, published 2024)", "key": {"dopamine transporter": {"biological_target": "dopamine transporter (Homo sapiens, UniProt Q01959)", "sequence (Q01959 whole entry)": "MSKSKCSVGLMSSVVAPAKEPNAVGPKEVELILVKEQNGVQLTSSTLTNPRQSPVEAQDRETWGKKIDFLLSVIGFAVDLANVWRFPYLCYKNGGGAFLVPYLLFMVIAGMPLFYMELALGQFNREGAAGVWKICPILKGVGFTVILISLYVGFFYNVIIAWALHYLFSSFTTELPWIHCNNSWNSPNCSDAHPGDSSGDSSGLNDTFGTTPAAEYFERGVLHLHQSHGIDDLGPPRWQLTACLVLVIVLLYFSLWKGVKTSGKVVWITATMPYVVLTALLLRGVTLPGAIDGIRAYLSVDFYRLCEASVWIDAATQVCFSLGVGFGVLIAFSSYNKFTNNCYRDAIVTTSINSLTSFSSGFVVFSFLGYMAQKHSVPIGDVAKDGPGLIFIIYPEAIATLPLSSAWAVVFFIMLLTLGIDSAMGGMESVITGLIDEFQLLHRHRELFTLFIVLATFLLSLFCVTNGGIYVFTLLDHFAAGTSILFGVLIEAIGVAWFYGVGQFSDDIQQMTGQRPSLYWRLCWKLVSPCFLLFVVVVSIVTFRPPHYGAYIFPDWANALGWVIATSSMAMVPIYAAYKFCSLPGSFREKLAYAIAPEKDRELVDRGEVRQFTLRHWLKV", "assay": "dopamine transport", "description": "ELP-004 has been evaluated for its ability to cross the blood brain barrier. […] Other medications, such as but not limited to bupropion, are known to cause problems due to dopamine transporter binding."}, "Jurkat cells": {"system": "Jurkat cells", "assay_type": "cell-based", "design": "dose or concentration left out as unconfirmed", "settings": "human", "experimental": "wherein each X is chlorine, Y is a methyl group, and R is an ethyl group. N-MeDCPA is synthesized as described in U.S. Pat. No. 10,682,320, which is incorporated by reference herein. ELP-004 (N-MeDCPA) precludes metabolizing to two toxic metabolites, N—OH-dichloroaniline and 6-OH-dichloroaniline. In vitro assays for toxicity caused by ELP-004 using Jurkat cells show 50% toxicity at […] and <2% toxicity at […].\nELP-004 (i.e. N-MeDCPA) was specifically developed to preclude metabolizing to two toxic metabolites, N—OH-dichloroaniline and 6-OH-dichloroaniline. In vitro assays for toxicity caused by ELP-004 using Jurkat cells show 50% toxicity at […] and <2% toxicity at […]."}, "Murine BMSMCs": {"system": "Murine BMSMCs", "assay": "RANKL-induced osteoclastogenesis (TRAP, multinucleation, marker mRNA)", "assay_type": "cell-based", "settings": "RANKL (100 ng/ml)", "experimental": "Murine BMSMCs were grown for up to 21 days in media supplemented with 50 ng/ml of m-CSF and 100 ng/mL RANKL. Each experiment was repeated a minimum of three times. Cells were fixed and stained for Tartrate Resistant Acid Phosphatase (TRAP) activity at days 1, 7, 14, and 21. The number of trap positive osteoclast-like cells (out of 100 cells) were counted for each time point, along with TRAP intensity, as shown in schematic A. In schematic B, the number of nuclei for each cell counted and the average number of nuclei per cell for 100 cells is shown at each time point."}, "CYP2D6": {"biological_target": "CYP2D6 (Homo sapiens, UniProt P10635)", "sequence (P10635 whole entry)": "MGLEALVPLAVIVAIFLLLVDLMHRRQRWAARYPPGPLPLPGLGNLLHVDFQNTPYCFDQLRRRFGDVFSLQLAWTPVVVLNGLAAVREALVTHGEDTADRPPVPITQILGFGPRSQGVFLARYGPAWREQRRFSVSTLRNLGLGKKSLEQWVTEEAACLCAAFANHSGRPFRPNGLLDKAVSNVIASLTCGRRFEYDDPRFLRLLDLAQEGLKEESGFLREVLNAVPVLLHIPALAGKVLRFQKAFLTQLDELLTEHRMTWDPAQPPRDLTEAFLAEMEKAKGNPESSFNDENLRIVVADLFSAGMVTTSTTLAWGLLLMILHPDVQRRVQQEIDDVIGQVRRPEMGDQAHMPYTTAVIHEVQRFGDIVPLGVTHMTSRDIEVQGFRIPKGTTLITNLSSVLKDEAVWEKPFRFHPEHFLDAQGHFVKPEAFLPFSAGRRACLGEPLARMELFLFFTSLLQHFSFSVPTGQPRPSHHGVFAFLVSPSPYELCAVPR", "assay": "stability with recombinant CYP2D6", "assay_type": "in vitro ADME", "experimental": "Depicted in table 2 is cytochrome P450 phenotyping and inhibition by ELP-004. The stability of ELP-004 was tested in the presence of recombinant enzymes CYP1A2, CYP2B6, CYP2C8, CYP2C9, CYP2C19, CYP2D6, and CYP3A4. ELP-004 (1 μM) was incubated with recombinant enzymes and NADPH. The amount of ELP-004 remaining at each timepoint was analyzed by LC-MS/MS. Incubations in control recombinant enzymes were also performed to assess non-enzymatic mediated stability. The intrinsic clearance of ELP-004 was determined. […] A decrease in the formation of the metabolite compared to vehicle control is used to calculate an IC50 value. Metabolite peak area ratio response as a percentage of vehicle control is plotted against the test compound concentration."}}, "note": "Read-outs that look alike come from different tables or passages of the source.", "data": [{"molecule": "CCC(=O)N(C)c1ccc(Cl)c(Cl)c1", "note": "[ELP-004, N-(3,4-dichlorophenyl)-N-methylpropanamide]", "values": [{"measurement": "problems with dopamine transport", "setting": "dopamine transporter", "value": "does not cause problems with dopamine transport"}, {"measurement": "toxicity", "setting": "Jurkat cells; 200", "value": "< 2", "unit": "%"}, {"measurement": "toxicity", "setting": "Jurkat cells; 800", "value": 50, "unit": "%"}, {"measurement": "TRAP activity", "setting": "Murine BMSMCs", "value": "no significant effect"}, {"measurement": "multinucleation", "setting": "Murine BMSMCs", "value": "no significant effect"}, {"measurement": "expression of osteoclast markers", "setting": "Murine BMSMCs; RT-PCR days 7 and 14", "value": "no significant effect"}, {"measurement": "microsomal CLint at 1 μM", "setting": "CYP2D6; human, recombinant CYP2D6, intrinsic clearance, read-out: Recombinant CYP CLINT", "value": "< 0.154", "unit": "µL/min/mg"}, {"measurement": "metabolism by recombinant enzyme", "setting": "CYP2D6; recombinant CYP2D6", "value": "not metabolized"}, {"measurement": "ELP-004 t1/2", "setting": "CYP2D6; recombinant CYP2D6, 1 μM, NADPH", "value": ">3", "unit": "h"}]}]}
